Reference: patent publication US20260216238A1, “TETRATHIOMOLYBDIC ACID FOR USE IN TREATING COPPER METABOLISM-ASSOCIATED DISEASES OR DISORDERS (WILSON DISEASE)” (Alexion Pharmaceuticals, Inc., priority 2023, published 2026)

System: patients with Wilson disease (WD)
Assay: UWDRS Part III total score, functional subscale and individual items (neurological examination)
Assay type: in vivo, human
Settings: for UWDRS Part III Functional Subscale (0-10) change from baseline, Mean (SD) / UWDRS Part III (0-175) change from baseline, Mean (SD): pooled Studies 301 and 201
Procedure: The UWDRS scoring system was developed specifically for the motor and movement disorders associated with chronic copper neurotoxicity in WD. Some individual items/subscales of the UWDRS Part III (arising from a chair, gait, handwriting, and speech) in addition to the UWDRS Parts I, II, and III overall, were assessed to further define the range of burdensome signs and symptoms of WD, so as to further understand the assessment of treatment effects on patients with WD. The UWDRS scores for consciousness (Part I) and abnormal neurologic examination findings (Part III) will be determined by a trained neurologist rater who is blinded to study treatment randomization. These scores were used to provide a rigorous dataset for evaluating changes from baseline.
Unified Wilson Disease Rating Scale (Parts I, II, and III): The UWDRS is a clinical rating scale designed to evaluate the neurological manifestations of WD that generally can be divided into 3 movement disorder syndromes: dystonic, ataxic, and Parkinsonian syndrome. The UWDRS comprises 3 parts: UWDRS Part I (level of consciousness, item 1), UWDRS Part II (a patient-reported review of daily activity items [disability], items 2 to 11), and UWDRS Part III (a detailed neurological examination, items 12 to 34).
The UWDRS Part I and Part III were assessed by a neurologist who is blinded to the treatment randomization, while UWDRS Part II may be reported to a non-blinded member of the study team by the patient, family member, or caregiver. The UWDRS has not been formally evaluated in adolescents. However, the components of Part I (level of consciousness), Part II (patient or caregiver-reported disability) and Part III (neurologic examination findings) were not fundamentally different between adults and adolescents. Patients aged 12 years and older were expected to be able to comply with UWDRS assessments.
Pooled results from all such participants will be integrated together into one timeline to allow analyses of changes in UWDRS, long-term copper control, and long-term safety laboratory data.
Endpoints (directly measured non-ceruloplasmin-bound copper [dNCC], UWDRS III (rater blinded) total and individual item scores, Clinical Global Impression-Improvement [CGI-I]) were evaluated at baseline (BL) and Week 48 (W48). Normalization (score decrease to 0), improvement (≥1 point decrease), stability (no change), or worsening (≥1 point increase) of total and individual UWDRS III item scores were evaluated at W48.

[1] = Week 24, Cohort 1, Study 201, n=8
[2] = Week 24, Cohort 1, Study 301, TTM n=90, SoC n=47
[3] = Week 24, Cohort 1, Total (Studies 301, 201, 205), n=98
[4] = Week 24, Study 301 TTM long term set
[5] = Week 48, Cohort 1, Study 201, n=9
[6] = Week 48, Cohort 1, Study 205, n=27
[7] = Week 48, Cohort 1, Study 301, TTM n=91, SoC n=49
[8] = Week 48, Cohort 1, Total (Studies 301, 201, 205), n=127

bis-choline tetrathiomolybdate [TTM] was tested, and the “UWDRS Part III Functional Subscale (0-10) change from baseline, Mean (SD)” value (TTM exposure 144 weeks) was −1.042 (1.7227), the “UWDRS-III change from baseline, Mean (SD)” value (“UWDRS-III change … (SD)” for short) (TTM exposure 168 weeks, N=18) was −18.08 (19.127) and the “UWDRS Part III (0-175) change from baseline, Mean (SD)” value (from here on “UWDRS Part III (0-175) change … (SD)”) (TTM exposure 168 weeks) was −18.08 (19.127). For the same substance, the “UWDRS Part III Functional Subscale (0-10) change from baseline, Mean (SD)” value (TTM exposure 168 weeks) was −1.841 (2.1818), the “UWDRS-III change … (SD)” value (TTM exposure 192 weeks, N=19) was −12.65 (19.476) and the “UWDRS Part III (0-175) change … (SD)” value (TTM exposure 192 weeks) was −12.65 (19.476). For the same substance, the “UWDRS Part III Functional Subscale (0-10) change from baseline, Mean (SD)” value (TTM exposure 192 weeks) was −1.250 (2.1459), the “UWDRS-III change … (SD)” value (TTM exposure 216 weeks, N=14) was −16.17 (19.323) and the “UWDRS Part III (0-175) change … (SD)” value (TTM exposure 216 weeks) was −16.17 (19.323). The “UWDRS Part III Functional Subscale (0-10) change from baseline, Mean (SD)” value (TTM exposure 216 weeks) was −1.519 (2.3987), the “UWDRS-III change … (SD)” value (TTM exposure 240 weeks, N=13) was −11.48 (16.473) and the “UWDRS Part III (0-175) change … (SD)” value (TTM exposure 240 weeks) was −11.48 (16.473). For the same substance, the “UWDRS Part III Functional Subscale (0-10) change from baseline, Mean (SD)” value (TTM exposure 240 weeks) was −0.898 (1.3384), the “UWDRS-III change … (SD)” value (TTM exposure 264 weeks, N=13) was −14.00 (16.513) and the “UWDRS Part III (0-175) change … (SD)” value (TTM exposure 264 weeks) was −14.00 (16.513). The “UWDRS Part III Functional Subscale (0-10) change from baseline, Mean (SD)” value (TTM exposure 264 weeks) was −0.995 (1.2369), the “UWDRS Part III-gait (0-10), Difference at 48 weeks, LSM” value (TTM vs SoC, P 0.4325) was −0.15 and the “UWDRS Part III-handwriting (0-4), Difference at 48 weeks, LSM” value (TTM vs SoC, P 0.5077) was −0.1. The “UWDRS Part III functional subscale (0-10), Difference at 48 weeks, LSM” value (TTM vs SoC, P 0.6191) was −0.067, the “UWDRS Part III-arising from chair (0-4), Difference at 48 weeks, LSM” value (TTM vs SoC, P 0.6869) was 0.0 and the “UWDRS Part III-speech (0-4), Difference at 48 weeks, LSM” value (TTM vs SoC, P 0.7238) was 0.0. The “UWDRS Part III (0-175), Difference at 48 weeks, LSM” value (TTM vs SoC, P 0.9441) was −0.09, the “UWDRS III total, LSM difference (SE) TTM versus SoC” value (W0-W48, cohort 1 incomplete response or intolerant, p=0.7084) was −0.53 (1.426) and the “UWDRS-III, Change from Baseline, Max” value [1] was 1.0. The “UWDRS-III, Change from Baseline, Mean” value [1] was −13.82, the “UWDRS-III, Change from Baseline, Median” value [1] was −13.50 and the “UWDRS-III, Change from Baseline, Min” value [1] was −35.0,. For the same substance, the “UWDRS-III, Change from Baseline, Q1” value [1] was −19.80,, the “UWDRS-III, Change from Baseline, Q3” value [1] was −5.00 and the “UWDRS-III, Change from Baseline, Max” value [2] was 13.0. For the same substance, the “UWDRS-III, Change from Baseline, Mean” value [2] was −0.86, the “UWDRS-III, Change from Baseline, Median” value [2] was 0.00 and the “UWDRS-III, Change from Baseline, Min” value [2] was −18.7,. For the same substance, the “UWDRS-III, Change from Baseline, Q1” value [2] was −3.00,, the “UWDRS-III, Change from Baseline, Q3” value [2] was 1.00 and the “UWDRS-III, Change from Baseline, Max” value [3] was 13.0. The “UWDRS-III, Change from Baseline, Mean” value [3] was −1.92, the “UWDRS-III, Change from Baseline, Median” value [3] was −1.00 and the “UWDRS-III, Change from Baseline, Min” value [3] was −35.0,. The “UWDRS-III, Change from Baseline, Q1” value [3] was −4.00,, the “UWDRS-III, Change from Baseline, Q3” value [3] was 1.00 and the “UWDRS-III, Change from Baseline, LSM Diff (TTM vs. SoC)” value (Week 24, Cohort 1, TTM Total vs SoC Study 301, P-value 0.3884) was −1.00. For the same substance, the “UWDRS-III, Change from Baseline, LSM” value (Week 24, Cohort 1, TTM Total, SoC Study 301) was −1.72, the “UWDRS Part III (0-175) change from baseline, LSM” value [4] was −1.32 and the “UWDRS Part III (0-175) change from baseline, Mean” value [4] was −0.74. The “UWDRS Part III functional subscale (0-10) change from baseline, LSM” value [4] was −0.158, the “UWDRS Part III functional subscale (0-10) change from baseline, Mean” value [4] was −0.139 and the “UWDRS Part III-arising from chair (0-4) change from baseline, LSM” value [4] was −0.1. For the same substance, the “UWDRS Part III-arising from chair (0-4) change from baseline, Mean” value [4] was 0.0, the “UWDRS Part III-gait (0-4) change from baseline, LSM” value [4] was −0.21 and the “UWDRS Part III-gait (0-4) change from baseline, Mean” value [4] was −0.17. For the same substance, the “UWDRS Part III-handwriting (0-4) change from baseline, LSM” value [4] was 0.0, the “UWDRS Part III-handwriting (0-4) change from baseline, Mean” value [4] was −0.1 and the “UWDRS Part III-speech (0-4) change from baseline, LSM” value [4] was −0.1. For the same substance, the “UWDRS Part III-speech (0-4) change from baseline, Mean” value [4] was −0.1, the “UWDRS-III, Change from Baseline, Max” value [5] was 2.0 and the “UWDRS-III, Change from Baseline, Mean” value [5] was −19.44. For the same substance, the “UWDRS-III, Change from Baseline, Median” value [5] was −13.00, the “UWDRS-III, Change from Baseline, Min” value [5] was −48.0, and the “UWDRS-III, Change from Baseline, Q1” value [5] was −29.00,. For the same substance, the “UWDRS-III, Change from Baseline, Q3” value [5] was −9.00, the “UWDRS-III, Change from Baseline, Max” value [6] was 6.0 and the “UWDRS-III, Change from Baseline, Mean” value [6] was −2.81. The “UWDRS-III, Change from Baseline, Median” value [6] was −2.00, the “UWDRS-III, Change from Baseline, Min” value [6] was −17.0, and the “UWDRS-III, Change from Baseline, Q1” value [6] was −6.00,. For the same substance, the “UWDRS-III, Change from Baseline, Q3” value [6] was 0.00, the “UWDRS-III, Change from Baseline, Max” value [7] was 31.0 and the “UWDRS-III, Change from Baseline, Mean” value [7] was −2.24. The “UWDRS-III, Change from Baseline, Median” value [7] was −1.00, the “UWDRS-III, Change from Baseline, Min” value [7] was −28.0, and the “UWDRS-III, Change from Baseline, Q1” value [7] was −4.00,. The “UWDRS-III, Change from Baseline, Q3” value [7] was 0.00, the “UWDRS-III, Change from Baseline, Max” value [8] was 31.0 and the “UWDRS-III, Change from Baseline, Mean” value [8] was −3.58.
